# Measurements from ChEMBL document CHEMBL1201862, “PubChem BioAssay data set” (2004).
#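 Assay format: 96-well plates, 48-hour exposure. GI50: concentration for 50% inhibition of growth.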 Calls of active or inactive are those of the source. Cut-off read from the data, not from the text of the source: active = GI50 up to about 1.1 µM and inactive = higher. Square brackets hold non-standard residues; d marks the D form. Residues, ends and D or L forms follow the SMILES beside them. Peptide text beside a SMILES is read from it. *: point of attachment. Boc = CC(C)(C)OC(=O)*
# What was measured:
# Assay in all cases: NCI anticancer screen, dose series, 48 h
# HL-60 = tested on: HL-60
# U-251 = tested on: U-251
# MDA-N = tested on: MDA-N
# LOX IMVI = tested on: LOX IMVI
# HT-29 = tested on: HT-29
# COLO 205 = tested on: COLO 205
# SF-268 = tested on: SF-268
# RXF 393 = tested on: RXF 393
# SK-MEL-5 = tested on: SK-MEL-5
# Malme-3M = tested on: Malme-3M
# CCRF-CEM = tested on: CCRF-CEM
# NCI-H522 = tested on: NCI-H522
# SW-620 = tested on: SW-620
# Hs-578T = tested on: Hs-578T
# ACHN = tested on: ACHN
# SK-MEL-28 = tested on: SK-MEL-28
# SK-MEL-2 = tested on: SK-MEL-2
# IGROV-1 = tested on: IGROV-1
# HCT-116 = tested on: HCT-116
# SR = tested on: SR
Compound,GI50 (HL-60),GI50 (U-251),GI50 (MDA-N),GI50 (LOX IMVI),GI50 (HT-29),GI50 (COLO 205),GI50 (SF-268),GI50 (RXF 393),GI50 (SK-MEL-5),GI50 (Malme-3M),GI50 (CCRF-CEM),GI50 (NCI-H522),GI50 (SW-620),GI50 (Hs-578T),GI50 (ACHN),GI50 (SK-MEL-28),GI50 (SK-MEL-2),GI50 (IGROV-1),GI50 (HCT-116),GI50 (SR)
O=C(CC(=O)Nc1ccccc1Cl)NNC(Sc1ccccc1)c1cc(/N=N/c2ccc(Br)cc2)ccc1O (configuration not stated),0.315 µM (active),1.59 µM (inactive),2.06 µM (inactive),0.927 µM (active),> 10 µM (inactive),4.35 µM (inactive),0.74 µM (active),1.53 µM (inactive),1.07 µM (active),2.12 µM (inactive),0.409 µM (active),4.07 µM (inactive),0.69 µM (active),3.13 µM (inactive),1.36 µM (inactive),2.69 µM (inactive),3.3 µM (inactive),2.71 µM (inactive),0.387 µM (active),
NC1N=C(c2ccc(Cl)cc2)C2=C(N1)c1ccccc1CC2 (configuration not stated),2.81 µM (inactive),25.6 µM (inactive),2.29 µM (inactive),4.13 µM (inactive),3.16 µM (inactive),33.9 µM (inactive),> 54 µM (inactive),7.96 µM (inactive),14.7 µM (inactive),10.3 µM (inactive),3.93 µM (inactive),4.07 µM (inactive),10.8 µM (inactive),8.71 µM (inactive),> 51.2 µM (inactive),64.7 µM (inactive),9.08 µM (inactive),5.68 µM (inactive),8.39 µM (inactive),
COc1ccc(CC2C(=O)NC(C)C(=O)N(C)C3C(=O)N(C)C(Cc4ccc(O)c(c4)Oc4ccc(cc4)C3O)C(=O)NC(C)C(=O)NC(C)C(=O)N2C)cc1 (configuration not stated),0.00308 µM (active),0.00124 µM (active),,0.00225 µM (active),0.0178 µM (active),0.0206 µM (active),0.0125 µM (active),0.0396 µM (active),0.00746 µM (active),0.0171 µM (active),0.0013 µM (active),0.0125 µM (active),0.0181 µM (active),0.01 µM (active),0.0891 µM (active),0.00223 µM (active),0.0125 µM (active),0.0162 µM (active),0.00181 µM (active),< 0.01 µM (active)
O=C1Nc2cc(Cl)ccc2C(=O)N2CCC[C@@H]12,> 100 µM (inactive),> 100 µM (inactive),> 100 µM (inactive),> 100 µM (inactive),> 100 µM (inactive),57.1 µM (inactive),> 100 µM (inactive),> 100 µM (inactive),> 100 µM (inactive),> 100 µM (inactive),> 100 µM (inactive),24.9 µM (inactive),> 100 µM (inactive),33.5 µM (inactive),> 100 µM (inactive),> 100 µM (inactive),> 100 µM (inactive),> 100 µM (inactive),> 100 µM (inactive),
Cc1cc(NS(=O)(=O)c2ccc(NC(=O)c3cccc4c(NNc5ccc(S(N)(=O)=O)cc5)c5ccccc5nc34)cc2)no1,31 µM (inactive),24 µM (inactive),52.1 µM (inactive),30.5 µM (inactive),30.9 µM (inactive),45.1 µM (inactive),34.9 µM (inactive),41.5 µM (inactive),39.5 µM (inactive),45.9 µM (inactive),27.9 µM (inactive),25 µM (inactive),37.2 µM (inactive),,39 µM (inactive),35.2 µM (inactive),24 µM (inactive),47.3 µM (inactive),33.2 µM (inactive),35.8 µM (inactive)
N=C(N)NCCC[C@H]1NC(=O)[C@@H](CCC(=O)O)NC(=O)[C@@H](CC(=O)O)NC(=O)[C@@H](CCC(=O)O)NC(=O)[C@H](Cc2c[nH]c3ccccc23)NC1=O (cyclo(W[dE][dD][dE][dR])),> 7.5 µM (inactive),> 7.5 µM (inactive),,> 7.5 µM (inactive),> 7.5 µM (inactive),> 7.5 µM (inactive),> 7.5 µM (inactive),> 7.5 µM (inactive),> 7.5 µM (inactive),,> 7.5 µM (inactive),> 7.5 µM (inactive),> 7.5 µM (inactive),> 7.5 µM (inactive),> 7.5 µM (inactive),,0.191 µM (active),> 7.5 µM (inactive),> 7.5 µM (inactive),> 7.5 µM (inactive)
CCOc1ccc(N/C(=C(/C(Cl)=C(/Cl)N2CCCCC2)[N+](=O)[O-])n2nnc3ccccc32)cc1,,15.6 µM (inactive),16.3 µM (inactive),,,20.6 µM (inactive),17.4 µM (inactive),,15.6 µM (inactive),21.7 µM (inactive),,6.31 µM (inactive),,,16.2 µM (inactive),18.5 µM (inactive),16.7 µM (inactive),,16.7 µM (inactive),
CC1(C)C2CCC(N)(C2)C1N (configuration not stated),22.3 µM (inactive),> 100 µM (inactive),> 100 µM (inactive),> 100 µM (inactive),,> 100 µM (inactive),,> 100 µM (inactive),> 100 µM (inactive),,> 100 µM (inactive),,> 100 µM (inactive),,> 100 µM (inactive),> 100 µM (inactive),> 100 µM (inactive),> 100 µM (inactive),> 100 µM (inactive),> 100 µM (inactive)
COc1cc2c(cc1NC(=O)c1ccccc1)c1c(n2S(=O)(=O)c2ccccc2)CCN(S(=O)(=O)c2ccccc2)C1,> 100 µM (inactive),> 100 µM (inactive),,> 100 µM (inactive),> 100 µM (inactive),> 100 µM (inactive),> 100 µM (inactive),> 100 µM (inactive),> 100 µM (inactive),,> 100 µM (inactive),,> 100 µM (inactive),> 100 µM (inactive),> 100 µM (inactive),> 100 µM (inactive),> 100 µM (inactive),> 100 µM (inactive),> 100 µM (inactive),> 100 µM (inactive)
c1ccc(-c2cnc3nc4ccccc4nc3n2)cc1,1.82 µM (inactive),4.94 µM (inactive),,3.25 µM (inactive),7.05 µM (inactive),2.15 µM (inactive),4.29 µM (inactive),,3.05 µM (inactive),2.45 µM (inactive),0.301 µM (active),3.5 µM (inactive),2.81 µM (inactive),3.78 µM (inactive),1.22 µM (inactive),14.7 µM (inactive),2.88 µM (inactive),3.31 µM (inactive),2.86 µM (inactive),0.826 µM (active)
CC(O)c1c2c(cc3c1CC1(C3)Cc3cc4c(c(C(C)O)c3C1)CCC4)CCC2 (configuration not stated),4.76 µM (inactive),14.1 µM (inactive),,17.5 µM (inactive),12.9 µM (inactive),13.4 µM (inactive),,14.9 µM (inactive),13 µM (inactive),15.9 µM (inactive),5.82 µM (inactive),13.1 µM (inactive),,22.5 µM (inactive),11.2 µM (inactive),,26.9 µM (inactive),20.3 µM (inactive),12.1 µM (inactive),8.38 µM (inactive)
O=C(CN1C(=O)c2ccccc2C1=O)OCC1CCCN2CCCCC12 (configuration not stated),> 100 µM (inactive),> 100 µM (inactive),> 100 µM (inactive),> 100 µM (inactive),> 100 µM (inactive),99.5 µM (inactive),> 100 µM (inactive),> 100 µM (inactive),> 100 µM (inactive),> 100 µM (inactive),> 100 µM (inactive),,> 100 µM (inactive),> 100 µM (inactive),> 100 µM (inactive),> 100 µM (inactive),> 100 µM (inactive),,> 100 µM (inactive),
COC(=O)C(Cc1c[nH]c2ccccc12)NC(=O)C(Cc1c[nH]c2ccccc12)NC(=O)C(Cc1c[nH]c2ccccc12)NC(=O)C(Cc1c[nH]c2ccccc12)NC(=O)OC(C)(C)C (configuration not stated) (Boc-WWWW-OMe; configuration not given here),6.34 µM (inactive),14.4 µM (inactive),18.5 µM (inactive),12.7 µM (inactive),22.9 µM (inactive),,28.2 µM (inactive),,34.5 µM (inactive),69.8 µM (inactive),3.78 µM (inactive),25.4 µM (inactive),6.07 µM (inactive),,57.5 µM (inactive),18.2 µM (inactive),,35.3 µM (inactive),13.9 µM (inactive),4.51 µM (inactive)
COc1cc2c[n+](C)c3c4cc(OC)c(OC)cc4c(OC)cc3c2cc1OC,,2.38 µM (inactive),6.32 µM (inactive),16.7 µM (inactive),5.48 µM (inactive),1.2 µM (inactive),0.0689 µM (active),8.83 µM (inactive),2.77 µM (inactive),2.06 µM (inactive),6.1 µM (inactive),0.0359 µM (active),7.69 µM (inactive),1.44 µM (inactive),> 100 µM (inactive),6.43 µM (inactive),15.8 µM (inactive),,2.92 µM (inactive),
COc1ccc(-c2c3ccccc3c(-c3ccc(OC)cc3)c3ccccc23)cc1,> 100 µM (inactive),> 100 µM (inactive),,> 100 µM (inactive),> 100 µM (inactive),> 100 µM (inactive),> 100 µM (inactive),> 100 µM (inactive),> 100 µM (inactive),> 100 µM (inactive),> 100 µM (inactive),> 100 µM (inactive),> 100 µM (inactive),,> 100 µM (inactive),> 100 µM (inactive),> 100 µM (inactive),> 100 µM (inactive),> 100 µM (inactive),> 100 µM (inactive)
